# Data published in ChEMBL document CHEMBL1201862, “PubChem BioAssay data set” (2004).
#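 Values below derive from 48-hour exposures of cells grown in 96-well plates, with endpoints linearly interpolated between the two concentrations bracketing the appropriate inhibition level. GI50 marks 50% less growth.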 Activity calls are given as the source filed them. Rule as the data show it: active = GI50 up to about 1.1 µM and inactive = higher.
# Legend:
# Test in all cases: NCI-60 cell line screen, 48 h
# [1] = tested on: MDA-MB-231
# [2] = tested on: NCI-H23
# [3] = tested on: Hs-578T
# [4] = tested on: OVCAR-3
# [5] = tested on: BT-549
# [6] = tested on: RPMI-8226
# [7] = tested on: HOP-92
# [8] = tested on: SK-MEL-2
# [9] = tested on: Malme-3M
# [10] = tested on: HL-60
# [11] = tested on: HCT-15
# [12] = tested on: SK-OV-3
# [13] = tested on: SK-MEL-28
# [14] = tested on: U-251
# [15] = tested on: MDA-MB-435
# [16] = tested on: IGROV-1
# [17] = tested on: MOLT-4
# [18] = tested on: HCC 2998
# [19] = tested on: SW-620
# [20] = tested on: SR
Compound,GI50 [1],GI50 [2],GI50 [3],GI50 [4],GI50 [5],GI50 [6],GI50 [7],GI50 [8],GI50 [9],GI50 [10],GI50 [11] [µM],GI50 [12],GI50 [13],GI50 [14],GI50 [15],GI50 [16],GI50 [17],GI50 [18],GI50 [19],GI50 [20]
c1cc(-c2ncc(-c3ccc4c(c3)CCCO4)o2)ccn1,17.7 µM (inactive),14.7 µM (inactive),17.4 µM (inactive),11.4 µM (inactive),13.2 µM (inactive),8.47 µM (inactive),21.6 µM (inactive),10.8 µM (inactive),10.4 µM (inactive),2.42 µM (inactive),6.24,15.6 µM (inactive),11.6 µM (inactive),11.2 µM (inactive),2.36 µM (inactive),15.6 µM (inactive),3.06 µM (inactive),,,
COC(=O)/C(=N\Nc1nnc(C)n1N)C(C#N)c1ccccc1 (configuration not stated),> 100 µM (inactive),24.1 µM (inactive),> 100 µM (inactive),> 100 µM (inactive),> 100 µM (inactive),99.5 µM (inactive),> 100 µM (inactive),> 100 µM (inactive),22.3 µM (inactive),> 100 µM (inactive),56.5,> 100 µM (inactive),> 100 µM (inactive),> 77.4 µM (inactive),17.3 µM (inactive),> 54.8 µM (inactive),> 100 µM (inactive),> 100 µM (inactive),> 86.5 µM (inactive),
O=C1C=C(c2c(O)ccc3ccccc23)c2ccccc2C1=O,3.85 µM (inactive),2.15 µM (inactive),,2.32 µM (inactive),2.48 µM (inactive),2.35 µM (inactive),2.22 µM (inactive),4.68 µM (inactive),5.2 µM (inactive),2.65 µM (inactive),3.57,10.7 µM (inactive),9.95 µM (inactive),2.21 µM (inactive),3.01 µM (inactive),3.3 µM (inactive),1.72 µM (inactive),11.7 µM (inactive),2.09 µM (inactive),
CC1C(c2ccccc2)O[B-](F)(c2ccccc2)[NH+]1C (configuration not stated),> 100 µM (inactive),> 100 µM (inactive),,> 100 µM (inactive),> 100 µM (inactive),> 100 µM (inactive),> 100 µM (inactive),,> 100 µM (inactive),> 100 µM (inactive),> 100,> 100 µM (inactive),> 100 µM (inactive),> 100 µM (inactive),> 100 µM (inactive),> 100 µM (inactive),> 100 µM (inactive),> 100 µM (inactive),> 100 µM (inactive),> 100 µM (inactive)
CCOC(=O)CCCN,> 100 µM (inactive),> 100 µM (inactive),> 100 µM (inactive),> 100 µM (inactive),> 100 µM (inactive),> 100 µM (inactive),> 100 µM (inactive),> 100 µM (inactive),> 100 µM (inactive),> 100 µM (inactive),> 100,> 100 µM (inactive),> 100 µM (inactive),> 100 µM (inactive),> 100 µM (inactive),> 100 µM (inactive),> 100 µM (inactive),> 100 µM (inactive),> 100 µM (inactive),
COc1cc(S(=O)(=O)Nc2ccc(-c3csc(N4C(=O)C(C)SC4c4ccccc4O)n3)cc2)ccc1Cl (configuration not stated),,30.1 µM (inactive),31.2 µM (inactive),69.5 µM (inactive),27 µM (inactive),32.1 µM (inactive),31.3 µM (inactive),42 µM (inactive),17.9 µM (inactive),27.3 µM (inactive),36.9,> 100 µM (inactive),16.1 µM (inactive),,37.8 µM (inactive),35.8 µM (inactive),27.1 µM (inactive),,34.8 µM (inactive),36.2 µM (inactive)
CCc1n[nH]c(=O)n1NC(=O)c1ccccc1C(=O)O,> 100 µM (inactive),> 100 µM (inactive),,> 100 µM (inactive),> 100 µM (inactive),> 100 µM (inactive),> 100 µM (inactive),> 100 µM (inactive),,,> 100,> 100 µM (inactive),> 100 µM (inactive),> 100 µM (inactive),> 100 µM (inactive),> 100 µM (inactive),> 100 µM (inactive),> 100 µM (inactive),> 100 µM (inactive),> 100 µM (inactive)
Oc1ccc2c(c1)OCC(O)(c1ccccc1O)C2 (configuration not stated),> 100 µM (inactive),> 100 µM (inactive),97.5 µM (inactive),> 100 µM (inactive),> 100 µM (inactive),> 100 µM (inactive),> 100 µM (inactive),> 100 µM (inactive),,> 100 µM (inactive),> 100,> 100 µM (inactive),> 100 µM (inactive),> 100 µM (inactive),> 100 µM (inactive),> 100 µM (inactive),> 100 µM (inactive),> 100 µM (inactive),> 100 µM (inactive),
NC(=O)NC(=O)Nc1ccc(Br)cc1,> 16.6 µM (inactive),> 14.5 µM (inactive),> 100 µM (inactive),,> 20 µM (inactive),10.3 µM (inactive),> 100 µM (inactive),13.2 µM (inactive),> 15.8 µM (inactive),4.34 µM (inactive),28,> 100 µM (inactive),6.14 µM (inactive),11.7 µM (inactive),9.57 µM (inactive),16.7 µM (inactive),3.78 µM (inactive),> 21.9 µM (inactive),> 11.5 µM (inactive),
Cc1cc(S(=O)(=O)Nc2nc3cc(-c4ccc(Cl)cc4)sc3c(=O)n2N)c(S)cc1Cl,56.6 µM (inactive),59.8 µM (inactive),> 100 µM (inactive),> 100 µM (inactive),> 100 µM (inactive),> 100 µM (inactive),72.9 µM (inactive),75.2 µM (inactive),> 100 µM (inactive),,45.6,63.2 µM (inactive),36.5 µM (inactive),43.4 µM (inactive),62.2 µM (inactive),59.6 µM (inactive),21.3 µM (inactive),94.4 µM (inactive),39.4 µM (inactive),
CCOC(=O)N1c2ccccc2S(=O)(=O)c2ccccc21,> 100 µM (inactive),> 100 µM (inactive),> 100 µM (inactive),> 100 µM (inactive),> 100 µM (inactive),,,> 100 µM (inactive),,> 100 µM (inactive),> 100,> 100 µM (inactive),> 100 µM (inactive),> 100 µM (inactive),> 100 µM (inactive),> 100 µM (inactive),> 100 µM (inactive),> 100 µM (inactive),> 100 µM (inactive),
Nc1nc(N)c2cc(S(=O)(=O)c3ccc4ccccc4c3)ccc2n1,1.62 µM (inactive),4.27 µM (inactive),8.39 µM (inactive),> 100 µM (inactive),11.7 µM (inactive),> 100 µM (inactive),5.86 µM (inactive),43.4 µM (inactive),14.4 µM (inactive),> 100 µM (inactive),3.93,> 100 µM (inactive),> 100 µM (inactive),3.24 µM (inactive),3.3 µM (inactive),1.5 µM (inactive),,> 100 µM (inactive),,
